Assay results reported in publication PMC12481569, “Novltex: A New Class of Antibiotics with Potent Activity against Multidrug-Resistant Bacterial Pathogens–Design, Synthesis, and Biological Evaluation” (Journal of Medicinal Chemistry, 2025).
≈ marks a conversion by molar mass, not a printed value. Like-named read-outs stand apart in the source and are kept apart here.

How the values were obtained:
[1] = tested on: Multidrug-Resistant (MDR) S. aureus; experiment: microbe, parasite or virus in culture; details: 24 h; for MIC: Staphylococcus aureus
Procedure: (§1) We further evaluated analogue 12 against multidrug-resistant (MDR) strains of S. aureus (acquired from the NARSA collection) and MDR E. faecium (acquired from International Health Management Associates, IHMA, Europe Sarl), comparing its activity to various classes of clinically used antibiotics (Table ).
(§2) MICs were performed as previously reported 4. For MIC testing all peptides were dissolved in DMSO.
(§3) Bacterial cultures were grown overnight on Mueller-Hinton Agar (MHA) plates and adjusted to a final inoculum of 10^5 – 10^6 CFU/mL. 100 µl of ino culum in Meuller -Hinton broth (MHB) was mixed with equal volume of peptides (dissolved in MHB) at 2x their concentration in a 96 well plate . For daptomycin MIC determination, the same protocol was followed with the addition of 50 mg/L calcium chloride to the medium. MIC values were determined in the media contain ing polysorbate 80 (0.002%, v/v) to prevent non -specific adsorption of the peptides to plastic surfaces. The final peptides concentrations ranged from 0.0625 – 32 µg/mL. The 96 well plates were then incubated at 37 °C for 24 h. All the experiments were performed in two independent duplicates and the MIC was determined as the lowest concentration in which no visible growth was observed.
(§4) Antibiotics MIC break points ( µg/mL)
(§5) Table. S4: Susceptibility cut-off values (MIC breakpoints) for various clinical antibiotics. […]

[2] = tested on: Multidrug-Resistant (MDR) E. faecium; experiment: microbe, parasite or virus in culture; details: 24 h; for MIC: Enterococcus faecium
Procedure: as §1, §2, §3, §4, §5

[3] = Lipid II binding, spot-on-lawn assays on S. aureus ATCC 33591; parameters: species or system Staphylococcus aureus; details: lipid II (300 μM, 2 μL) at the edge of the antibiotic halo, overnight 37 °C, duplicates
Source text: 6 Spot-on-lawn assays to evaluate binding of Lipid II with analogue 12 on S. aureus ATCC 33591. (A) Analogue 12 was premixed with increasing ratios of lipid II (0.5 to 4 equiv) and spotted onto a seeded lawn of S. aureus 33591. Lipid II and analogue 12 were also spotted independently. The position of the analogue 12–lipid II mixture is marked in red. (B) Daptomycin was used as a negative control. Asterisks denote the positions of analogue 12 (black), lipid II (blue), and daptomycin (green) additions.
Analogue 12 was premixed with increasing ratios of lipid II (0.5 to 4 equiv) for 10 min prior to spotting onto agar plates seeded with a lawn of S. aureus ATCC 33591 and incubated overnight.
XII. Lipid II binding determination of analogue 12
Previously reported methods were used to determine the lipid II binding of analogue 126,7. The lipid II used in this study was prepared by chemical synthesis and its preparation and purification has been […]
A: An overnight culture of S. aureus ATCC 33591 was added to LB agar (45 °C) at a final concentration of 0.1% (vol/vol) and pour-plated into 90 mm petri dishes. Binding of 12 to purified lipid II was assessed using a spot-on-lawn assay. Premixed solutions (5 µL) containing analogue 12 (8 µg) with varying concentration of lipid II were spotted onto the agar, alongside individual controls of 12 and lipid II.
After drying, plates were incubated overnight at 37 °C. This assay was performed in duplicates.
B: To assess the interaction between analogue 12 and lipid II, a culture of S. aureus ATCC 33591 was grown overnight in LB broth and inoculated into LB agar at a final concentration of 1% (v/v) at 45°C.
This mixture was evenly distributed into 90mm petri dishes. Antibiotic inhibition haloes were previously determined by spotting analogue 12 and daptomycin (5 μL,8 µg/mL) onto agar plates and measuring the diameter of the halo after overnight incubation at 37 °C . The binding affinity of analogue 12 and lipid II was later examined by applying purified lipid II (300 μM, 2 μL) to the edge of the antibiotic halo. Analogue 12 and Daptomycin were applied to the inoculated agar plate at a spaced distance, once the antimicrobial solution drops had dried, lipid II was spotted on the edge of the inhibition halo. The plates were then incubated overnight at 37 °C. […]

[4] = tested on: MRSA ATCC 33591; experiment: Time-kill kinetics; format: cell-based, Staphylococcus aureus; details: 5 μg/mL, MHB with 0.002% polysorbate 80, 37 °C, two independent experiments in duplicate
Procedure: Early-stage time-kill kinetics for analogue 12 against MRSA ATCC 33591 were performed using vancomycin as a control, following the protocol described in Section VIII, Supporting Information.
3 Time-kill kinetics of Novltex analogue 12 and clinical antibiotic (vancomycin) against MRSA 33591. […] Results are the mean ± SD of two independent experiments performed in duplicate.
as §2, §3, §4
Table. […]

[5] = tested on: MRSA ATCC 33591; experiment: microbe, parasite or virus in culture; format: cell-based, Staphylococcus aureus; details: Staphylococcus aureus, 24 h, read-out: MIC against MRSA ATCC 33591
Procedure: as §2
as §3, with “observed. […]” for “observed.”

Structure (SMILES)	MIC, Staphylococcus aureus NR 45914 ([1]; MDR strain NR 45914, MHB, 0.002% polysorbate 80, 37 °C, daptomycin with 50 mg/L calcium chloride) [µg/mL]	MIC, Staphylococcus aureus NR 45926 ([1]; MDR strain NR 45926, MHB, 0.002% polysorbate 80, 37 °C, daptomycin with 50 mg/L calcium chloride) [µg/mL]	MIC, Staphylococcus aureus NR 45930 ([1]; MDR strain NR 45930, MHB, 0.002% polysorbate 80, 37 °C, daptomycin with 50 mg/L calcium chloride) [µg/mL]	MIC, Staphylococcus aureus NR 46062 ([1]; MDR strain NR 46062, MHB, 0.002% polysorbate 80, 37 °C, daptomycin with 50 mg/L calcium chloride) [µg/mL]	MIC, Enterococcus faecium 1563254 ([2]; MDR clinical isolate 1563254, MHB, 0.002% polysorbate 80, 37 °C, daptomycin with 50 mg/L calcium chloride) [µg/mL]	MIC, Enterococcus faecium 1581582 ([2]; MDR clinical isolate 1581582, MHB, 0.002% polysorbate 80, 37 °C, daptomycin with 50 mg/L calcium chloride) [µg/mL]	MIC, Enterococcus faecium 1766686 ([2]; MDR clinical isolate 1766686, MHB, 0.002% polysorbate 80, 37 °C, daptomycin with 50 mg/L calcium chloride) [µg/mL]	halo distortion on addition of lipid II [3]	MIC ([1]; read-out: MIC, Staphylococcus aureus NR 45914) [µg/mL]	MIC ([1]; read-out: MIC, Staphylococcus aureus NR 45926) [µg/mL]	MIC ([1]; read-out: MIC, Staphylococcus aureus NR 45930) [µg/mL]	MIC ([1]; read-out: MIC, Staphylococcus aureus NR 46062) [µg/mL]	MIC ([2]; read-out: MIC, Enterococcus faecium 1563254) [µg/mL]	MIC ([2]; read-out: MIC, Enterococcus faecium 1581582) [µg/mL]	MIC ([2]; read-out: MIC, Enterococcus faecium 1766686) [µg/mL]	time to similar bacterial killing [4] [h]	MIC [5] [µg/mL]
CCCCCCCCCC(=O)N[C@@H](Cc1c[nH]c2ccccc12)C(=O)N[C@H](CC(N)=O)C(=O)N[C@@H](CC(=O)O)C(=O)N[C@@H]1C(=O)NCC(=O)N[C@@H](CCCN)C(=O)N[C@@H](CC(=O)O)C(=O)N[C@H](C)C(=O)N[C@@H](CC(=O)O)C(=O)NCC(=O)N[C@H](CO)C(=O)N[C@@H]([C@H](C)CC(=O)O)C(=O)N[C@@H](CC(=O)c2ccccc2N)C(=O)O[C@@H]1C [Daptomycin]	2 (≈ 1.23 µM)	4 (≈ 2.47 µM)	2 (≈ 1.23 µM)	2 (≈ 1.23 µM)	>32	>32	>32	maintained a distinct circular inhibition zone									
CN[C@H](CC(C)C)C(=O)N[C@H]1C(=O)N[C@@H](CC(N)=O)C(=O)N[C@H]2C(=O)N[C@H]3C(=O)N[C@H](C(=O)N[C@H](C(=O)O)c4cc(O)cc(O)c4-c4cc3ccc4O)[C@H](O)c3ccc(c(Cl)c3)Oc3cc2cc(c3O[C@@H]2O[C@H](CO)[C@@H](O)[C@H](O)[C@H]2O[C@H]2C[C@](C)(N)[C@H](O)[C@H](C)O2)Oc2ccc(cc2Cl)[C@H]1O [Vancomycin]									1 (≈ 0.69 µM)	0.5 (≈ 0.345 µM)	1 (≈ 0.69 µM)	2 (≈ 1.38 µM)	> 32	> 32	> 32	24	0.5 to 1 (≈ 0.345 to 0.69 µM)
